# Test results published in patent US20170066779A1, “SOLID FORMS OF A FLAVIVIRIDAE VIRUS INHIBITOR COMPOUND AND SALTS THEREOF” (IDENIX Pharmaceuticals LLC, priority 2014, published 2017).
# What was measured:
# [1] = Gravimetric vapor sorption (GVS); format: physicochemical; conditions: for XRPD post GVS / XRPD after GVS: solid form after the sorption cycle
# Description: Sorption isotherms were obtained using a SMS DVS Intrinsic moisture sorption analyzer, controlled by DVS Intrinsic Control software v1.0.0.30. The sample temperature was maintained at 25° C. by the instrument controls. The humidity was controlled by mixing streams of dry and wet nitrogen, with a total flow rate of 200 mL/min. The relative humidity (RH) was measured by a calibrated Rotronic probe (dynamic range of 1.0-100% RH), located near the sample. The weight change, (mass relaxation) of the sample as a function of % RH was constantly monitored by the microbalance (accuracy ±0.005 mg). Typically 5-20 mg of sample was placed in a tared mesh stainless steel basket under ambient conditions. The sample was loaded and unloaded at 40% RH and 25° C. (typical room conditions). A moisture sorption isotherm was performed as outlined below (2 scans giving 1 complete cycle). The standard isotherm was performed at 25° C. at 10% RH intervals over a 0-90% RH range. Data analysis was undertaken in Microsoft Excel using DVS Analysis Suite v6.0.0.7.
# [2] = Solid-state storage stability at elevated temperature and humidity (XRPD); format: physicochemical
# Description: One hundred milligrams of the amorphous form of the compound of Formula I was solubilized into 5 volumes of ethyl acetate or acetone under constant stirring at respectively 70° C. or 50° C. (experiment performed in duplicate). […] Systems were then allowed to equilibrate at initial temperature for 1 hour (crashing out reported in all cases). Some samples were then filtered at respectively 70° C. or 50° C. Other samples were cooled to 0° C. at 0.1° C./min. Suspensions were observed after 1 hour slurrying at 0° C. Ten volumes of solvent were added to each sample and the systems were allowed to equilibrate at 0° C. for 1 hour. One aliquot of each condition was filtered under reduced pressure, dried for 16 hours at 70° C. and 3 mbar and characterized by XRPD, ^1H-NMR and HPLC (Table 6).
# Ca. 0.5 g of the compound of Formula I was weighed in a 10 mL vial, 15 vol. of IPAc were added. The suspension was heated to 50° C., 2.5 eq of acid added (from a stock solution 1 M in THF) and then cooled to 5° C. at 0.1° C. min^−1. Suspension was filtered with vacuum and allowed to dry under these conditions for 4 h. Samples were analyzed by XRPD to check the conversion and then they were dried under vacuum at 30° C. for 20 h. […] The suspension was heated to 50° C. and additional 0.5 eq of acid added from a stock solution 1 M in THF. The suspension was then cooled to 5° C. at 0.1° C. min^−1. The solid was filtered with vacuum and allowed to dry under these conditions for 4 h. The solid was analyzed by XRPD to check the conversion and then it was dried under vacuum at 30° C. for 20 h.
# Caco-2 cell model = test: Permeability in the 3-day Caco-2 cell model; format: in vitro ADME
# [3] = Half-life in human hepatocytes; format: in vitro ADME
# Description: Furthermore, the half-life in human hepatocytes was in the mid/long range of >8 hours for the compound of Formula I. Consequently, rapid hepatic clearance is unlikely to contribute to low oral bioavailability.
# P-gp = molecular target: T1, P-gp (Homo sapiens, UniProt P08183); test: P-gp substrate assessment (BA/AB transport ratio, with or without cyclosporine A); format: in vitro ADME
# T1 construct: endogenous in cells; host or cells: Caco-2
# T1 sequence (P08183 whole entry): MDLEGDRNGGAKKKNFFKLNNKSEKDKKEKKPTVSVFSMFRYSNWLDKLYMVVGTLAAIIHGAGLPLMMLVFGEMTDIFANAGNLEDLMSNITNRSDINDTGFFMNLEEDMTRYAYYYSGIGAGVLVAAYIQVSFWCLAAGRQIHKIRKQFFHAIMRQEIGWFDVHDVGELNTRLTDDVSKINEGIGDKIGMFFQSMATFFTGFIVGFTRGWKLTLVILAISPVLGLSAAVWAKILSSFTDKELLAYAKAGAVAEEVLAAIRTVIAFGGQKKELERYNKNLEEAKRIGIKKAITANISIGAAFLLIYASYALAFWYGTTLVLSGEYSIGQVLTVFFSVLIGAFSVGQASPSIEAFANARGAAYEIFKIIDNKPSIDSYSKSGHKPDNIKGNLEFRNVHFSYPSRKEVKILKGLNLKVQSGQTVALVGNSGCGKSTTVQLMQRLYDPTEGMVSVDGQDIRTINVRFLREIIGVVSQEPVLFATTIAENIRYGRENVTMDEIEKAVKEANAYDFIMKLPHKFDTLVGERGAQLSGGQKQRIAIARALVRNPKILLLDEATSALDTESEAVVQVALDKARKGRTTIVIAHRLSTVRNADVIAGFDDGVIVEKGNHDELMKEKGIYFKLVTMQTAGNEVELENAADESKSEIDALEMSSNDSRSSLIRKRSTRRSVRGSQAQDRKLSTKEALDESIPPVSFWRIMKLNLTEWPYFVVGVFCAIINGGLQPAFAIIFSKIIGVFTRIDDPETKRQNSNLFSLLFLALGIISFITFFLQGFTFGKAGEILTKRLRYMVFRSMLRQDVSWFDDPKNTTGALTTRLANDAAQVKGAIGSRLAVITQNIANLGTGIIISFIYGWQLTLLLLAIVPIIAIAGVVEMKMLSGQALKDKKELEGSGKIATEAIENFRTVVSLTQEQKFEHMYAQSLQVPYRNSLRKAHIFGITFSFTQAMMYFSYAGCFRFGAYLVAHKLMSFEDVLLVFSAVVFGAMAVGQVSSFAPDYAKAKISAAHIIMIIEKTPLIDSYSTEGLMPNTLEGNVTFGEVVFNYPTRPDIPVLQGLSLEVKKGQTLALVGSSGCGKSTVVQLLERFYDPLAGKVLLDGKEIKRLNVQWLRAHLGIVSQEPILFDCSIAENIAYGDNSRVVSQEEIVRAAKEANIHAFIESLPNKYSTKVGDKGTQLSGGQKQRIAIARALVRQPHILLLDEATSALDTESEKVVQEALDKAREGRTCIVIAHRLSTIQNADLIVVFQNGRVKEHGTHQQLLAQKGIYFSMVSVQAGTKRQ
# [4] = Absolute oral bioavailability in rats; conditions: rat, in vivo, dosed as a solution in 0.5% TPGS/37.5% PEG200/60% PBS, 10 mg/kg PO and 2 mg/kg IV
# Description: The desired route of administration for the compound of Formula I is oral. The absolute oral bioavailability in rats was determined to be approximately 4-8% when dosed as a solution in 0.5% TPGS/37.5% PEG200/60% PBS. The doses were 10 mg/kg PO and 2 mg/kg IV.
# [5] = Thermodynamic aqueous solubility; format: physicochemical; conditions: for thermodynamic aqueous solubility, rank order: solubility decreases in the printed order
# Description: The suspension was equilibrated at 25° C. for 24 hours then the pH was measured. The suspension was then filtered through a glass fibre C filter. The filtrate was then diluted by an appropriate factor, e.g. 101. Quantitation was by HPLC with reference to a standard solution of approximately 0.25 mg/mL in DMSO. Different volumes of the standard, diluted and undiluted sample solutions were injected.
compound,measurement,setting,value
"COC(=O)N[C@H](C(=O)N1CCC[C@H]1c1nc2ccc(-c3csc4c(-c5ccc(-c6cnc([C@@H]7CCCN7C(=O)[C@H](NC(=O)OC)c7ccccc7)[nH]6)cc5)csc34)cc2[nH]1)C(C)C [Form A, methyl N-{(1R)-2-[(2S)-2-{5-[4-(6-{2-[(2S)-1-{(2S)-2-[(methoxycarbonyl)amino]-3-methylbutanoyl}pyrrolidin-2-yl]-3H-benzimidazol-5-yl}thieno[3,2-b]thiophen-3-yl)phenyl]-1H-imidazol-2-yl}pyrrolidin-1-yl]-2-oxo-1-phenylethyl}carbamate]",GVS weight uptake at 90% RH,"[1]; 25° C., 90% RH",1.16 wt %
same,XRPD post GVS / XRPD after GVS,[1],Form A
same,Stability 25° C./92% RH (XRPD after 11 days),"[2]; 25° C./92% RH, 11 days",Form A
same,Stability 40° C./75% RH (XRPD after 11 days),"[2]; 40° C./75% RH, 11 days",Form A
same,effect of GVS analysis and storage at elevated temperature and humidity on the crystals,"[2]; eleven days, recrystallized 100 mg scale samples",remained as Form A
"COC(=O)N[C@H](C(=O)N1CCC[C@H]1c1nc2ccc(-c3csc4c(-c5ccc(-c6cnc([C@@H]7CCCN7C(=O)[C@H](NC(=O)OC)c7ccccc7)[nH]6)cc5)csc34)cc2[nH]1)C(C)C [compound of Formula I, methyl N-{(1R)-2-[(2S)-2-{5-[4-(6-{2-[(2S)-1-{(2S)-2-[(methoxycarbonyl)amino]-3-methylbutanoyl}pyrrolidin-2-yl]-3H-benzimidazol-5-yl}thieno[3,2-b]thiophen-3-yl)phenyl]-1H-imidazol-2-yl}pyrrolidin-1-yl]-2-oxo-1-phenylethyl}carbamate]",permeability,Caco-2 cell model,low permeability
same,half-life,[3],> 8 h
same,effect from addition of P-gp inhibitor cyclosporine A,P-gp,absence of effect
same,P-gp substrate,P-gp; deduced from BA/AB transport ratio and cyclosporine A addition,not a P-gp substrate
same,efflux ratio,"P-gp; human, Caco-2",< 1
same,bioavailability,[4],4 to 8%
same,BCS classification,[5]; based on poor aqueous solubility and low Caco-2 permeability,BCS Class IV
same,solubility,"[5]; poor aqueous solubility, basis of BCS classification",< 500 µg/mL
same,"thermodynamic aqueous solubility, rank order",[5],HCl>H2SO4>tosylate=free base form
H2SO4,GVS wt uptake between 0-90% RH,[1],RH 25.5% wt
same,GVS wt uptake between 40-75% RH,[1]; 40-75% RH,6.12% wt uptake
same,GVS wt uptake between 75-90% RH,[1]; 75-90% RH,RH 14.5% wt
same,XRPD post GVS / XRPD after GVS,[1],Amorphous
same,Stability 25° C./92% RH (XRPD after 7 days),[2]; 25° C./92% RH,Amorphous
same,Stability 40° C./75% RH (XRPD after 7 days),[2]; 40° C./75% RH,Amorphous
Tosylate,GVS wt uptake between 0-90% RH,[1],9.5% wt uptake
same,XRPD post GVS / XRPD after GVS,[1],Amorphous
same,Stability 25° C./92% RH (XRPD after 7 days),[2]; 25° C./92% RH,Amorphous
same,Stability 40° C./75% RH (XRPD after 7 days),[2]; 40° C./75% RH,Amorphous
same,pH of the equilibrated suspension in the solubility determination,[5]; measured after equilibration at 25° C. for 24 hours,1.52
same,Aqueous Solubility,"[5]; scaled-up amorphous salts, final pH printed in the same cell",0.00 mgmL^−1
same,"thermodynamic aqueous solubility, rank order",[5],HCl>H2SO4>tosylate=free base form
